Measurements as given in patent US6610649B2, “Insulin C-peptides” (Creative Peptides Sweden AB, priority 1996, dated 2003).

Tests used:
[1] = system: Na^+K^+ATPase; assay: Stimulation of Na+K+ATPase activity of rat renal tubule cells (microdissected proximal convoluted tubules, 32P-ATP with or without ouabain); assay type: cell-based; conditions: for relative stimulatory activity on Na^+K^+ATPase activity: 5-10^−7 M peptide, rat C-peptide 1 at the same concentration set at 100%, tubules incubated 30 minutes at room temperature; for stimulation of Na^+K^+ATPase activity compared with whole C-peptide (in words): renal tubule cells in vitro; for activity of peptides containing D-amino acid isomers (in words): Na^+K^+ATPase of rat renal tubule segments
Procedure: Fragments of the invention have been proven to stimulate Na^+K^+ATPase activity to varying extent. […] As much as 90% of the effect is achieved within 3 minutes. […] Combinations of Peptides A-D with Peptides E or F result in a stimulation of the enzyme activity that is greater than that for either peptide alone. For detailed examples of the stimulatory effects of the above peptides, see Example 1, below.
In the case of peptide A certain studies on Na^+K^+ATPase activity, studying the ability of the peptide fragments to stimulate the activity of Na^+K^+ATPase of rat renal tubule segments, have shown that one or more of the central tri-glycine residues may be important, and preferred peptide fragments, where peptide A is concerned, thus include at least one, and more preferably, at least two, of the central tri-glycine residues. Thus, in addition to peptides B, C and D mentioned above, representative exemplary peptide fragments include GGGPGAG (SEQ ID NO. 8), GGGPG (SEQ ID No. 9), GGGP (SEQ ID NO. 10), GGP and GGPG (SEQ ID NO. 11).
The stimulatory effect of Peptides A-F on Na^+K^+ATPase activity of rat renal tubule cells was examined. Single proximal convoluted tubules were prepared from rat kidneys by micro-dissection. The tubules were incubated for 30 minutes at room temperature with either of Peptides A-F or rat C-peptide 1. Na^+K^+ATPase activity was then measured following exposure of the tubules to hypotonic shock and incubation for 15 minutes in a medium containing ^32P-ATP in the presence or absence of oubain.
The stimulatory activity of 5-10^−7 M rat C-peptide 1 was set at 100%. For the same concentration of Peptides A-F the following relative activities were obtained: […]

[2] = system: cell surface of human renal tubule cells (C-peptide binding site); assay: Binding of rhodamine-labelled C-peptide to cultured human renal tubule cells, by fluorescence correlation spectroscopy; conditions: for effect of preincubation on binding of fluorescently labelled C-peptide (in words): preincubation of cells with the unlabelled peptide
Procedure: When fluorescently labelled C-peptide is incubated with cells it binds to the cell surface. […] For a detailed example of the binding of Fragment E see Example 28, below.
The specific binding of Peptide E to the cell surface is illustrated as follows. Human biosynthetic C-peptide (Eli-Lilly, Inc., Indianapolis, USA) was labelled with tetramethylrhodamine using the activated reagent tetramethylrhodamine succinimidyl ester (FluoReporter® Protein labelling kit, Art. no. F-6163; Molecular Probes Europe BV, Leiden, Netherlands). The coupling reaction was performed at pH 8.3 (0.1 M NaHCO3 buffer) with a five-fold stoichiometrical excess of activated reagent to C-peptide. The tetramethylrhodamine group has absorption/emission maxima at 555/580 nm, respectively and is incorporated in the N-terminus of the C-peptide. Labelled C-peptides were purified by gel filtration (desalting against 50 mM phosphate buffer, 0.1 M NaCl, pH 7.4) on a NAP-5 column; Pharmacia Biotech Uppsala, Sweden) and subsequently by preparative reverse phase chromatography (250 mm Kromasil C8 column, diam. 4.6 mm, 7 μm particle size, 10 nm pore size, Eka-Nobel, Surte, Sweden) using a 1090 Hewlett Packard HPLC chromatography system (Grenoble, France) (FIG. 1). Eluted material was immediately adjusted to pH 8 by addition of ammonia and subsequently lyophilized.
Cultured human renal tubule cells (proximal convoluted tubules, PCT) were incubated with the rhodamine labelled C-peptide synthesized as described above. The cells were prepared from the healthy part of a human kidney removed surgically because of hypernephroma. The outer 150 μm of the renal cortex was removed in a microtome and incubated in a collagenase solution (0.05%) at 37° C. for 15 minutes. A tissue suspension was centrifuged and rinsed twice with 0.01% soybean trypsin inhibitor-solution (Gibco Laboratories, Grand Island, N.Y., USA) and a concentrate of PCT fragments and PCT cells were plated onto glass cover slips. The cells were cultured in Dulbecco's Modified Eagle's Medium [DMEM, 20 mmol/l 4-(2-hydroxyethyl)-1-piperazineethane sulphoric acid (Hepes), 24 mmol/l NaHCO3 50,000 IU/l penicillin and 50 mg/l streptomycin, pH 7.4] with 10% fetal bovine serum (Gibco) in an incubator at 37° C. with 95% O2, and 5% CO2. After 28 hours in culture the medium was changed to DMEM with 1% fetal bovine serum. The cells were examined approximately 18-36 hours later.
The interaction between C-peptide and the cell surface of the tubule cells was recorded using fluorescence correlation spectroscopy (11). […] In contrast, when the cells were preincubated with 5 μM of Peptide E, C-peptide binding after 50 minutes was no more than 12%.

Substance	relative stimulatory activity on Na^+K^+ATPase activity [1] [%]	effect of preincubation on binding of fluorescently labelled C-peptide (in words) [2]	other results
GSLQ [Peptide F, fragment of Peptide E]	96±2	prevent binding of the fluorescently marked C-peptide	stimulation of Na^+K^+ATPase activity compared with whole C-peptide (in words) [1]: comparable to or greater than that for the whole molecule
EAEDLQVGQVELGGGPGAGSLQPLALEGSLQ (N-terminal tetramethylrhodamine label) [C-peptide, human biosynthetic C-peptide (Eli-Lilly)]	–	prevents binding of the fluorescently labelled C-peptide	C-peptide bound to the cell surface ([2]; C-peptide 5 nM, within 50 minutes, no competitor): 92%
ELGG [Peptide B, fragment of Peptide A]	36±2	–	–
D,L-LG	–	–	activity of peptides containing D-amino acid isomers (in words) [1]: active
D-LG	–	–	activity of peptides containing D-amino acid isomers (in words) [1]: active
GGPGA [Peptide D, fragment of Peptide A]	65±4	–	–
ELGGGPGAG [Peptide A, fragment of human insulin C-peptide]	88±3	–	–
ELGGGP [Peptide C, fragment of Peptide A]	46±3	–	–
EGSLQ [Peptide E, C-terminal fragment of human insulin C-peptide]	110±3	prevent binding of the fluorescently marked C-peptide	stimulation of Na^+K^+ATPase activity compared with whole C-peptide (in words) [1]: comparable to or greater than that for the whole molecule; C-peptide remaining bound after later addition of the peptide ([2]; C-peptide bound for 50 minutes, then peptide added, within 4 hours): 14%; C-peptide binding after 50 minutes ([2]; cells preincubated with 5 μM of the peptide, C-peptide 5 nM): no more than 12%
